Assays:
Type in all cases: cell-based
Settings in all cases: compounds at 50 nM and 500 nM
CK1α = molecular target: T1, CK1α (Homo sapiens, UniProt P48729+Q96SW2); experiment: Western blot degradation of CK1α in hPBMCs (24 h)
T1 construct: The supernatant was aspirated as the extracted total cell protein; endogenous in cells; host or cells: human peripheral blood mononuclear cells (hPBMCs)
Procedure, shortened: (§1)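 Compounds were tested at 50 nM and 500 nM on hPBMCs (1×10^6 cells/mL) for 24 h, alongside DMSO. Proteins were detected by Western blot after denaturation at 95 °C; remaining protein computed from normalised band grayscale.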

IKZF1 = molecular target: T2, IKZF1 (Homo sapiens, UniProt Q13422+Q96SW2); experiment: Western blot degradation of IKZF1 in hPBMCs (24 h)
T2 construct: The supernatant was aspirated as the extracted total cell protein; endogenous in cells; host or cells: human peripheral blood mononuclear cells (hPBMCs)
Procedure, shortened: as §1

GSPT1 = molecular target: T3, GSPT1 (Homo sapiens, UniProt P15170+Q96SW2); experiment: Western blot degradation of GSPT1 in hPBMCs (24 h)
T3 construct: The supernatant was aspirated as the extracted total cell protein; endogenous in cells; host or cells: human peripheral blood mononuclear cells (hPBMCs)
Procedure, shortened: as §1

WEE1 = molecular target: T4, WEE1 (Homo sapiens, UniProt P30291+Q96SW2); experiment: Western blot degradation of WEE1 in hPBMCs (24 h)
T4 construct: The supernatant was aspirated as the extracted total cell protein; endogenous in cells; host or cells: human peripheral blood mononuclear cells (hPBMCs)
Procedure, shortened: as §1

IKZF3 = molecular target: T5, IKZF3 (Homo sapiens, UniProt Q96SW2+Q9UKT9); experiment: Western blot degradation of IKZF3 in hPBMCs (24 h)
T5 construct: The supernatant was aspirated as the extracted total cell protein; endogenous in cells; host or cells: human peripheral blood mononuclear cells (hPBMCs)
Procedure, shortened: as §1

IKZF2 = molecular target: T6, IKZF2 (Homo sapiens, UniProt Q96SW2+Q9UKS7); experiment: Western blot degradation of IKZF2 in hPBMCs (24 h)
T6 construct: The supernatant was aspirated as the extracted total cell protein; endogenous in cells; host or cells: human peripheral blood mononuclear cells (hPBMCs)
Procedure, shortened: as §1

T5 sequence (Q9UKT9 whole entry): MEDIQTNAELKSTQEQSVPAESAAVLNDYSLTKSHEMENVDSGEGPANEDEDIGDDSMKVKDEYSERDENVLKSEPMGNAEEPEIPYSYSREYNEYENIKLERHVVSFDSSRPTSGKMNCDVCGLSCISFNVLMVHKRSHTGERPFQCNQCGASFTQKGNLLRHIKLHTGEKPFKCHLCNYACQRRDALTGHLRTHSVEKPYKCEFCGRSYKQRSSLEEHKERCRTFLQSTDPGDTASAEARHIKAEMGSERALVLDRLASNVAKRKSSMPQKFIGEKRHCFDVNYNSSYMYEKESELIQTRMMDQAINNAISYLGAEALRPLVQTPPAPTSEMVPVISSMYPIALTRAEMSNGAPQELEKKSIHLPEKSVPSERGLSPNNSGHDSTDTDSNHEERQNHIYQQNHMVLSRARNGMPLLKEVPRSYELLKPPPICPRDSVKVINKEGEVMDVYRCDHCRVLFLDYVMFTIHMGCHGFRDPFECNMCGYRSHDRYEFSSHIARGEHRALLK
T5 sequence (Q96SW2 whole entry): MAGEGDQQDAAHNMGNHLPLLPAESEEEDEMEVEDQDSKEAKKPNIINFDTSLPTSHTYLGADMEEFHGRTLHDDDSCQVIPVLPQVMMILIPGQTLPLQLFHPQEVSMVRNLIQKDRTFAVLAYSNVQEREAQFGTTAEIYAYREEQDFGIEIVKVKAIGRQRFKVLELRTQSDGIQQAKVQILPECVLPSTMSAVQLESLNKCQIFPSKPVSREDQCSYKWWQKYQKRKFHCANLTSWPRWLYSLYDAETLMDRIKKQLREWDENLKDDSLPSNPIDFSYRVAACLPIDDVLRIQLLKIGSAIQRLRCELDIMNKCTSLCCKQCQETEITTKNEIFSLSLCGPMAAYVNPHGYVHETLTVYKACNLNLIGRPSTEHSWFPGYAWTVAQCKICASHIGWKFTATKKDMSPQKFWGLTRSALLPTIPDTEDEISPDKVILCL
T5 sequence (Q16531 whole entry partner): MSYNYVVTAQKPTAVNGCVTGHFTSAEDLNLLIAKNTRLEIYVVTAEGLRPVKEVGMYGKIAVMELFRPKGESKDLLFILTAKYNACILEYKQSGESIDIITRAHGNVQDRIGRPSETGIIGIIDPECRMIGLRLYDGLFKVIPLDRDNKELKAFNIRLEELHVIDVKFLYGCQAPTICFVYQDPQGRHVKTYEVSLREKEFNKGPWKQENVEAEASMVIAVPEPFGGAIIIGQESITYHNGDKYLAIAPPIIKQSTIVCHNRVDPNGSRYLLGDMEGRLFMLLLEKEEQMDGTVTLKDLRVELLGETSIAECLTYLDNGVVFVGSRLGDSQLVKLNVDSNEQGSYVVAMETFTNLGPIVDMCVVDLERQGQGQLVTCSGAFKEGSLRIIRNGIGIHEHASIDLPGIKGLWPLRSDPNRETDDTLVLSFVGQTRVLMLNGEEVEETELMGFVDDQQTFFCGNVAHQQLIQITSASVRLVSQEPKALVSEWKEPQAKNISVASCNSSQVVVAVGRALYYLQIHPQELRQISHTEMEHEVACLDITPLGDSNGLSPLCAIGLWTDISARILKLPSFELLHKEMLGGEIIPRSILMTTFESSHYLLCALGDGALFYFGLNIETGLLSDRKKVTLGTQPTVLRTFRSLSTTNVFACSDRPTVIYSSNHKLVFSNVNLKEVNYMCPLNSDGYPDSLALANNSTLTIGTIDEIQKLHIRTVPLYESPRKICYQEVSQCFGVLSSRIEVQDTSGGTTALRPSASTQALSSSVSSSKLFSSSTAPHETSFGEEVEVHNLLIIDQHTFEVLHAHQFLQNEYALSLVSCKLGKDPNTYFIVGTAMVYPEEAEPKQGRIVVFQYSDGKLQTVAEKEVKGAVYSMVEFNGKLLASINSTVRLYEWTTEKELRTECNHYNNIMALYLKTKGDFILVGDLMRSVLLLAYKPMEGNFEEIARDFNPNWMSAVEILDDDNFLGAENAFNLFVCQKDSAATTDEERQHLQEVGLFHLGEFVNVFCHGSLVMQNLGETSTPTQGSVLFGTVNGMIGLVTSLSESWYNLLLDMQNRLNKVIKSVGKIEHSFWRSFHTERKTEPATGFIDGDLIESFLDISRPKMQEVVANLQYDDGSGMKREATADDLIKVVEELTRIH
T2 sequence (Q13422 whole entry): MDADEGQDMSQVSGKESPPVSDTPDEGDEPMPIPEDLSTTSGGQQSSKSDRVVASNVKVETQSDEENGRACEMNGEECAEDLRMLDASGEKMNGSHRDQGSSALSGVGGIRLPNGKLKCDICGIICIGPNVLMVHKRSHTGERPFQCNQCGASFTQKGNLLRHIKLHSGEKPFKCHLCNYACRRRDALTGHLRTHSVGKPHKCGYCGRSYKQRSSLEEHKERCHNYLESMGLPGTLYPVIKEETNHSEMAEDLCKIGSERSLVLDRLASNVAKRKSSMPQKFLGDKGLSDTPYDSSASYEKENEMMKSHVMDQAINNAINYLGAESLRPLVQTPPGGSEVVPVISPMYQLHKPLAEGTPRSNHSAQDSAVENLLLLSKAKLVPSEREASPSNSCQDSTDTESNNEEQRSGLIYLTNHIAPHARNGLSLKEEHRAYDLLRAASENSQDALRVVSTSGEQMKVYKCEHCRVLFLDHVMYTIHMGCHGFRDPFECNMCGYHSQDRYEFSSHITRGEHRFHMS
T2 sequence (Q96SW2 whole entry): as the sequence (Q96SW2 whole entry) above
T2 sequence (Q16531 whole entry partner): as the sequence (Q16531 whole entry partner) above
T3 sequence (P15170 whole entry): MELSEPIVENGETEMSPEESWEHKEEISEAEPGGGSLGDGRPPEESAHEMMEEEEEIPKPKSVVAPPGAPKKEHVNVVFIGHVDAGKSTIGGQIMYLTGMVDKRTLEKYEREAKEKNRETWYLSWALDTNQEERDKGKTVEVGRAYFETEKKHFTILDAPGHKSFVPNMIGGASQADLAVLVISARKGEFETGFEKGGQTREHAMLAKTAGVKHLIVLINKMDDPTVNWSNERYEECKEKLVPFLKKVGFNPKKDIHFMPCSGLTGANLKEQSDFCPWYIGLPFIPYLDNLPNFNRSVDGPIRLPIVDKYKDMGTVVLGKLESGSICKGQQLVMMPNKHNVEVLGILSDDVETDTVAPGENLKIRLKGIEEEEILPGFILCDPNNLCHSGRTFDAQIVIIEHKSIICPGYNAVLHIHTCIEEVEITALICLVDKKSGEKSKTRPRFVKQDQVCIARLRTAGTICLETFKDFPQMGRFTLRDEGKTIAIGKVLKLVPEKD
T3 sequence (Q96SW2 whole entry): as the sequence (Q96SW2 whole entry) above
T3 sequence (Q16531 whole entry partner): as the sequence (Q16531 whole entry partner) above
T6 sequence (Q9UKS7 whole entry): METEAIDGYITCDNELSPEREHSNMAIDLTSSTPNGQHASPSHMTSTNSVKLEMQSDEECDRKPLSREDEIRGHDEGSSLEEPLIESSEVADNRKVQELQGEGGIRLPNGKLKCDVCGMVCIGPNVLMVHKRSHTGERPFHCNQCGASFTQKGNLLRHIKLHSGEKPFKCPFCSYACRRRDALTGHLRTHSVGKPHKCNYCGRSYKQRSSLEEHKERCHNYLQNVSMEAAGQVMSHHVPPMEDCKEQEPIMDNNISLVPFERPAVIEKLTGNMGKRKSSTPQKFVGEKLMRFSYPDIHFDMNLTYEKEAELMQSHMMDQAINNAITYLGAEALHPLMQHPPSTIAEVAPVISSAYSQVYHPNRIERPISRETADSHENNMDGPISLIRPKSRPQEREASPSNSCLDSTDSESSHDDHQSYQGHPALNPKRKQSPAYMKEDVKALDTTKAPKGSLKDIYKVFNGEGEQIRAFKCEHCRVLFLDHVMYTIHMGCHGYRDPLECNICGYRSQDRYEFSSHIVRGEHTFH
T6 sequence (Q96SW2 whole entry): as the sequence (Q96SW2 whole entry) above
T6 sequence (Q16531 whole entry partner): as the sequence (Q16531 whole entry partner) above
T4 sequence (P30291 whole entry): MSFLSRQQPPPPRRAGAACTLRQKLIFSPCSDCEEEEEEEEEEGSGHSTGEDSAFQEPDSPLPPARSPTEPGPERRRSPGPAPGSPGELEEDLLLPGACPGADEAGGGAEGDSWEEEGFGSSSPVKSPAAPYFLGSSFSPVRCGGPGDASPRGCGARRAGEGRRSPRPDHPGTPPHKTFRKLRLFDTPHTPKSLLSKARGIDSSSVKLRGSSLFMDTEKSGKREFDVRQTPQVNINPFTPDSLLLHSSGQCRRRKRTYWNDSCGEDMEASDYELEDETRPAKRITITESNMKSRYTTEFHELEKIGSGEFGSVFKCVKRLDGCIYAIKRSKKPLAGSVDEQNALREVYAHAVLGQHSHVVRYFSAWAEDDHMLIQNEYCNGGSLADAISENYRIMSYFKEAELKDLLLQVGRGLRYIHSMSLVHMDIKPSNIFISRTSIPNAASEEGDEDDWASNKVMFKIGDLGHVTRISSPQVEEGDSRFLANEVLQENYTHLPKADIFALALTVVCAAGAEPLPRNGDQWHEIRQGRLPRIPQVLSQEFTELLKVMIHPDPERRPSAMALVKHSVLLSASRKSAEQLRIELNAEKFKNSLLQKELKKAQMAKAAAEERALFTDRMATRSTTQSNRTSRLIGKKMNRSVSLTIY
T4 sequence (Q96SW2 whole entry): as the sequence (Q96SW2 whole entry) above
T4 sequence (Q16531 whole entry partner): as the sequence (Q16531 whole entry partner) above

With `O=C1CCN(N2C(=O)c3ccc(CN4CCC(c5cccs5)CC4)cc3C2=O)C(=O)N1` [GT-07424, 2-(2,4-dioxotetrahydropyrimidin-1(2H)-yl)-5-((4-(thiophen-2-yl)piperidin-1-yl)methyl)isoindoline-1,3-dione] the “CK1α substrate protein remaining %” value (CK1α) was “B (80%< substrate protein remaining % ≤100%)”, the “IKZF1 substrate protein remaining %” value (IKZF1) was “A (0% ≤ substrate protein remaining % ≤80%)” and the “GSPT1 substrate protein remaining %” value (GSPT1) was “A (0% ≤ substrate protein remaining % ≤80%)”. For the same compound, the “WEE1 substrate protein remaining %” value (WEE1) was “A (0% ≤ substrate protein remaining % ≤80%)”, the “IKZF3 substrate protein remaining %” value (IKZF3) was “A (0% ≤ substrate protein remaining % ≤80%)” and the “IKZF2 substrate protein remaining %” value (IKZF2) was “B (80%< substrate protein remaining % ≤100%)”.

`O=C1CCN(N2Cc3cc(CN4C[C@H]5C[C@@H]4CN5c4cccc(Cl)c4Cl)ccc3C2=O)C(=O)N1` [GT-07427, 1-(5-(((1R,4R)-5-(2,3-dichlorophenyl)-2,5-diazabicyclo[2.2.1]heptan-2-yl)methyl)-1-oxoisoindolin-2-yl)dihydropyrimidine-2,4(1H,3H)-dione] was tested, and the “CK1α substrate protein remaining %” value (CK1α) was “A (0% ≤ substrate protein remaining % ≤80%)”, the “IKZF1 substrate protein remaining %” value (IKZF1) was “A (0% ≤ substrate protein remaining % ≤80%)” and the “GSPT1 substrate protein remaining %” value (GSPT1) was “A (0% ≤ substrate protein remaining % ≤80%)”. For the same compound, the “WEE1 substrate protein remaining %” value (WEE1) was “A (0% ≤ substrate protein remaining % ≤80%)”, the “IKZF3 substrate protein remaining %” value (IKZF3) was “B (80%< substrate protein remaining % ≤100%)” and the “IKZF2 substrate protein remaining %” value (IKZF2) was “B (80%< substrate protein remaining % ≤100%)”.

In the case of `O=C1CCN(N2Cc3cc(CN4CC5CCC4CN5c4cccc(Cl)c4Cl)ccc3C2=O)C(=O)N1` (stereo not drawn) [GT-07428, 1-(5-((5-(2,3-dichlorophenyl)-2,5-diazabicyclo[2.2.2]octan-2-yl)methyl)-1-oxoisoindolin-2-yl)dihydropyrimidine-2,4(1H,3H)-dione], the “CK1α substrate protein remaining %” value (CK1α) is reported as “A (0% ≤ substrate protein remaining % ≤80%)”, the “IKZF1 substrate protein remaining %” value (IKZF1) is reported as “A (0% ≤ substrate protein remaining % ≤80%)” and the “GSPT1 substrate protein remaining %” value (GSPT1) is reported as “A (0% ≤ substrate protein remaining % ≤80%)”. The “WEE1 substrate protein remaining %” value (WEE1) was “B (80%< substrate protein remaining % ≤100%)”, the “IKZF3 substrate protein remaining %” value (IKZF3) was “B (80%< substrate protein remaining % ≤100%)” and the “IKZF2 substrate protein remaining %” value (IKZF2) was “B (80%< substrate protein remaining % ≤100%)”.

`O=C1CCN(N2Cc3cc(CN4CC5CCC(C4)N5c4cccc(Cl)c4Cl)ccc3C2=O)C(=O)N1` [GT-07429, 1-(5-((8-(2,3-dichlorophenyl)-3,8-diazabicyclo[3.2.1]octan-3-yl)methyl)-1-oxoisoindolin-2-yl)dihydropyrimidine-2,4(1H,3H)-dione] was tested, and the “CK1α substrate protein remaining %” value (CK1α) was “B (80%< substrate protein remaining % ≤100%)”, the “IKZF1 substrate protein remaining %” value (IKZF1) was “A (0% ≤ substrate protein remaining % ≤80%)” and the “GSPT1 substrate protein remaining %” value (GSPT1) was “B (80%< substrate protein remaining % ≤100%)”. For the same compound, the “WEE1 substrate protein remaining %” value (WEE1) was “B (80%< substrate protein remaining % ≤100%)”, the “IKZF3 substrate protein remaining %” value (IKZF3) was “B (80%< substrate protein remaining % ≤100%)” and the “IKZF2 substrate protein remaining %” value (IKZF2) was “B (80%< substrate protein remaining % ≤100%)”.

With `O=C1CCN(N2Cc3cc(CN4C5CCC4CN(c4cccc(Cl)c4Cl)C5)ccc3C2=O)C(=O)N1` [GT-07430, 1-(5-((3-(2,3-dichlorophenyl)-3,8-diazabicyclo[3.2.1]octan-8-yl)methyl)-1-oxoisoindolin-2-yl)dihydropyrimidine-2,4(1H,3H)-dione] the “CK1α substrate protein remaining %” value (CK1α) was “A (0% ≤ substrate protein remaining % ≤80%)”, the “IKZF1 substrate protein remaining %” value (IKZF1) was “A (0% ≤ substrate protein remaining % ≤80%)” and the “GSPT1 substrate protein remaining %” value (GSPT1) was “A (0% ≤ substrate protein remaining % ≤80%)”. The “WEE1 substrate protein remaining %” value (WEE1) was “B (80%< substrate protein remaining % ≤100%)”, the “IKZF3 substrate protein remaining %” value (IKZF3) was “B (80%< substrate protein remaining % ≤100%)” and the “IKZF2 substrate protein remaining %” value (IKZF2) was “B (80%< substrate protein remaining % ≤100%)”.

For `O=C1CCN(N2Cc3cc(CN4CCCN(c5cccc(Cl)c5Cl)CC4)ccc3C2=O)C(=O)N1` [GT-07431, 1-(5-((4-(2,3-dichlorophenyl)-1,4-diazepan-1-yl)methyl)-1-oxoisoindolin-2-yl)dihydropyrimidine-2,4(1H,3H)-dione], the “CK1α substrate protein remaining %” value (CK1α) was “A (0% ≤ substrate protein remaining % ≤80%)”, the “IKZF1 substrate protein remaining %” value (IKZF1) was “A (0% ≤ substrate protein remaining % ≤80%)” and the “GSPT1 substrate protein remaining %” value (GSPT1) was “B (80%< substrate protein remaining % ≤100%)”. The “WEE1 substrate protein remaining %” value (WEE1) was “B (80%< substrate protein remaining % ≤100%)”, the “IKZF3 substrate protein remaining %” value (IKZF3) was “B (80%< substrate protein remaining % ≤100%)” and the “IKZF2 substrate protein remaining %” value (IKZF2) was “B (80%< substrate protein remaining % ≤100%)”.

`CC1CN(C(c2ccccc2)c2ccccc2)CC(C)N1Cc1ccc2c(c1)CN(N1CCC(=O)NC1=O)C2=O` (stereo not drawn) [GT-07433, 1-(5-((4-benzhydryl-2,6-dimethylpiperazin-1-yl)methyl)-1-oxoisoindolin-2-yl)dihydropyrimidine-2,4(1H,3H)-dione] was tested, and the “CK1α substrate protein remaining %” value (CK1α) was “A (0% ≤ substrate protein remaining % ≤80%)”, the “IKZF1 substrate protein remaining %” value (IKZF1) was “B (80%< substrate protein remaining % ≤100%)” and the “GSPT1 substrate protein remaining %” value (GSPT1) was “B (80%< substrate protein remaining % ≤100%)”. For the same compound, the “WEE1 substrate protein remaining %” value (WEE1) was “B (80%< substrate protein remaining % ≤100%)”, the “IKZF3 substrate protein remaining %” value (IKZF3) was “B (80%< substrate protein remaining % ≤100%)” and the “IKZF2 substrate protein remaining %” value (IKZF2) was “A (0% ≤ substrate protein remaining % ≤80%)”.

For `O=C1CCN(N2C(=O)c3ccc(CN4CC5CC(C4)N5c4cccc(Cl)c4Cl)cc3C2=O)C(=O)N1` [GT-07434, 5-((6-(2,3-dichlorophenyl)-3,6-diazabicyclo[3.1.1]heptan-3-yl)methyl)-2-(2,4-dioxotetrahydropyrimidin-1(2H)-yl)isoindoline-1,3-dione], the “CK1α substrate protein remaining %” value (CK1α) was “A (0% ≤ substrate protein remaining % ≤80%)”, the “IKZF1 substrate protein remaining %” value (IKZF1) was “B (80%< substrate protein remaining % ≤100%)” and the “GSPT1 substrate protein remaining %” value (GSPT1) was “B (80%< substrate protein remaining % ≤100%)”. For the same compound, the “WEE1 substrate protein remaining %” value (WEE1) was “B (80%< substrate protein remaining % ≤100%)”, the “IKZF3 substrate protein remaining %” value (IKZF3) was “B (80%< substrate protein remaining % ≤100%)” and the “IKZF2 substrate protein remaining %” value (IKZF2) was “B (80%< substrate protein remaining % ≤100%)”.

In the case of `O=C1CCN(N2C(=O)c3ccc(CN4C[C@H]5C[C@@H]4CN5c4cccc(Cl)c4Cl)cc3C2=O)C(=O)N1` [GT-07435, 5-(((1R,4R)-5-(2,3-dichlorophenyl)-2,5-diazabicyclo[2.2.1]heptan-2-yl)methyl)-2-(2,4-dioxotetrahydropyrimidin-1(2H)-yl)isoindoline-1,3-dione], the “CK1α substrate protein remaining %” value (CK1α) is reported as “A (0% ≤ substrate protein remaining % ≤80%)”, the “IKZF1 substrate protein remaining %” value (IKZF1) is reported as “B (80%< substrate protein remaining % ≤100%)” and the “GSPT1 substrate protein remaining %” value (GSPT1) is reported as “B (80%< substrate protein remaining % ≤100%)”. For the same compound, the “WEE1 substrate protein remaining %” value (WEE1) was “B (80%< substrate protein remaining % ≤100%)”, the “IKZF3 substrate protein remaining %” value (IKZF3) was “B (80%< substrate protein remaining % ≤100%)” and the “IKZF2 substrate protein remaining %” value (IKZF2) was “B (80%< substrate protein remaining % ≤100%)”.

In the case of `O=C1CCN(N2C(=O)c3ccc(CN4CC5CCC4CN5c4cccc(Cl)c4Cl)cc3C2=O)C(=O)N1` (stereo not drawn) [GT-07436, 5-((5-(2,3-dichlorophenyl)-2,5-diazabicyclo[2.2.2]octan-2-yl)methyl)-2-(2,4-dioxotetrahydropyrimidin-1(2H)-yl)isoindoline-1,3-dione], the “CK1α substrate protein remaining %” value (CK1α) is reported as “A (0% ≤ substrate protein remaining % ≤80%)”, the “IKZF1 substrate protein remaining %” value (IKZF1) is reported as “B (80%< substrate protein remaining % ≤100%)” and the “GSPT1 substrate protein remaining %” value (GSPT1) is reported as “B (80%< substrate protein remaining % ≤100%)”. For the same compound, the “WEE1 substrate protein remaining %” value (WEE1) was “B (80%< substrate protein remaining % ≤100%)”, the “IKZF3 substrate protein remaining %” value (IKZF3) was “B (80%< substrate protein remaining % ≤100%)” and the “IKZF2 substrate protein remaining %” value (IKZF2) was “A (0% ≤ substrate protein remaining % ≤80%)”.

For `O=C1CCN(N2C(=O)c3ccc(CN4CC5CCC(C4)N5c4cccc(Cl)c4Cl)cc3C2=O)C(=O)N1` [GT-07437, 5-((8-(2,3-dichlorophenyl)-3,8-diazabicyclo[3.2.1]octan-3-yl)methyl)-2-(2,4-dioxotetrahydropyrimidin-1(2H)-yl)isoindoline-1,3-dione], the “CK1α substrate protein remaining %” value (CK1α) was “A (0% ≤ substrate protein remaining % ≤80%)”, the “IKZF1 substrate protein remaining %” value (IKZF1) was “B (80%< substrate protein remaining % ≤100%)” and the “GSPT1 substrate protein remaining %” value (GSPT1) was “A (0% ≤ substrate protein remaining % ≤80%)”. For the same compound, the “WEE1 substrate protein remaining %” value (WEE1) was “A (0% ≤ substrate protein remaining % ≤80%)”, the “IKZF3 substrate protein remaining %” value (IKZF3) was “B (80%< substrate protein remaining % ≤100%)” and the “IKZF2 substrate protein remaining %” value (IKZF2) was “B (80%< substrate protein remaining % ≤100%)”.

Reference: patent publication US20260356819A1, “OXOISOINDOLINYL-SUBSTITUTED […] DERIVATIVE AND USE THEREOF” (GLUETACS THERAPEUTICS (SHANGHAI) CO., LTD., priority 2023, published 2026)
